# Measured values from patent publication US12708673B2, “Methods and compositions related to peptides and proteins with c-terminal elements” (Sanford Burnham Prebys Medical Discovery Institute, priority 2008, dated 2026).
# Entries after “also recorded” stand apart in the source; their conditions may differ.
# How the values were obtained:
# [1] = system: pancreatic tumors; test: Tumor homing of intravenously injected fluorescamine-labeled iRGD peptide in PDAC mouse; type: in vivo; conditions: intravenous, 4.5 hrs circulation
# Description: Approximately 200 μg of fluorescamine-labeled iRGD peptide was injected into a pancreatic ductal adenocarcinoma (PDAC) mouse through the tail vein, and was allowed to circulate for 4.5 hrs. The organs were harvested and observed under UV light (upper panel). […] T7 phage displaying iRGD peptides (main panel) or CG7C control peptides (right upper window) were incubated with PPC1 cells cultured on collagen-I coated cover slips for 2 hours at 37° C., stained with anti T7 antibody and a plasma membrane marker, and imaged by a confocal microscope.
# [2] = system: cells; test: Cell internalization of iRGD compared with other RGD peptides; type: cell-based
# [3] = system: PPC-1 cells; test: T7 phage internalization into PPC-1 (PPC1) cells at 37° C. (acid wash and titration, or anti-T7 staining and confocal imaging); type: cell-based, human
# Description: (§1) FIG. 2A: Binding of T7 phage to prostate cancer cells depends on the display of a C-terminal arginine on the phage particles. PPC1 cells were incubated with T7 bacteriophage displaying derivatives of the G7 (upper graph) or RPARPAR peptide (SEQ ID NO: 2) (lower graph) at 4° C., and the bound phage was quantified by plaque assay. Binding is expressed in fold over of the non-binding G7 control phage. FIG. 2B: Phage displaying C-terminal arginine is internalized into cultured PPC1 cells (arrow, nuclear internalization; arrowhead, cytoplasmic internalization). A panel of T7 phage clones were incubated at 37° C. with PPC1 cells grown on collagen-coated coverslips, stained with anti T7 antibody and imaged by confocal microscopy.
# (§2) Phage display. For in vivo phage display, mice were injected intravenously with 10^10 plaque-forming units (pfu) of T7 phage followed by perfusion of the circulatory system and determination of the bound phage in target organs by titration. For cell binding studies on cultured cells (in vitro display) and organ-derived cell suspensions (ex vivo display), the cells were incubated with 10^9 pfu of phage at 4° C., washed, lysed, and quantified by titration. Incubation at 37° C. followed by low pH wash (glycine-HCl, pH 2.5) was used to assess the amount of internalized phage.
# (§3) For biopanning and phage binding studies (Hoffman, J. A. et al., 2004), cultured cells were grown to confluence and harvested with trypsin and mouse organs were dissociated using Medimachine (BD Biosciences, San Jose, CA). To measure phage binding, 10^6 cells in binding buffer (DMEM containing 1% BSA) were incubated with 10^9 pfu/ml of T7 phage for 1 hour at 4° C. The cells were washed 4 times with the binding buffer, lysed in LB bacterial growth medium containing 1% NP-40, and titrated. Phage internalization assays used the same procedure, except that the cells were incubated with the phage at 37° C., and that an acidic buffer (500 mM sodium chloride, 0.1 M glycine, 1% BSA, pH 2.5) was used instead of binding buffer in the second wash.
# (§4) Centrifugation on a silicone oil cushion (1.03 g/ml) was used to separate unbound phage from cells during time course experiments. Inhibitors of phage binding and internalization (heparin, chondroitin, glycocalyx removal enzymes, endocytosis inhibitors, free peptides, quantum dots and UV-inactivated phage) were added to the cells 20 minutes prior to incubation with phage. Endocytosis inhibitors used in this study were the following: nystatin (50 μg/ml), genistein (100 μg/ml), chlorpromazine (5 μg/ml), 5-(N-ethyl-N-isopropyl) amiloride (100 μM), wortmannin (10 μM).
# Immunofluorescence staining. Cultured cells (2×10^5 cells) were grown in 6-well tissue culture plates on collagen-I coated coverslips (BD Biosciences, San Jose, CA) overnight at 37° C. in 5% CO2, and incubated with 10^8 pfu of T7 phage. The cells were fixed in 4% paraformaldehyde or cold (−20° C.) methanol, and stained with antibodies. Nuclei were stained with DAPI or […]. A polyclonal rabbit anti-T7 antibody was generated in-house as described previously (Laakkonen, P. et al. 2002b), except that an additional phage purification step using […] centrifugation was included. Other primary antibodies used were rat anti-mouse CD31 monoclonal antibody (BD Biosciences), rabbit anti-NRP-1, mouse anti-human Lamp-1, mouse anti-human caveolin (Millipore, Temecula, CA), mouse anti-NRP-1 (Miltenyi Biotec Inc., Auburn, CA), mouse anti-human EEA-1 (BD Biosciences, San Jose, CA). The secondary antibodies, Alexa594 goat antibodies to mouse, rat, and rabbit immunoglobulins and Alexa488 donkey anti-rabbit antibody were from Invitrogen (Carlsbad, CA). Cells and tissue sections were examined by confocal microscopy (Fluoview 500, Olympus America Inc., Center Valley, PA).
# [4] = system: spontaneous pancreatic ductal adenocarcinoma; test: Spreading of intravenously injected phage into tumor tissue of transgenic mice bearing pancreatic ductal adenocarcinoma; type: in vivo, mouse; conditions: 15 min circulation
# Text: The mice were than perfused with PBS containing 1% BSA, and the tumors were harvested. Cryosections of the tumors were stained with an anti-T7 phage antibody, an anti CD31 antibody, and DAPI. […] Staining is denoted by the bright coloring in both panels of FIG. 9.
# [5] = target: T1, NRP-1 (Homo sapiens, UniProt O14786); test: Affinity chromatography of PPC-1 tumor extract on immobilized RPARPAR peptide; type: binding; conditions: 130 kDa protein, MALDI-TOF
# T1 construct: from tissue; host or cells: orthotopic PPC-1 prostate tumor xenografts grown in BALB/c nude mice, extracted with n-octyl-beta-D-glucopyranoside
# Description: (§5) FIGS. 18A-18C show the identification and validation of NRP-1 as the CendR receptor. FIG. 18A: Affinity chromatography of proteins interacting with RPARPAR (SEQ ID NO: 2) peptide. PPC-1 tumor tissue was extracted with a 200 mM glucopyranoside buffer, and the extract was incubated with RPARPAR-coated (SEQ ID NO:2) beads, followed by extensive washes, and elution with 2 mM free RPARPAR (SEQ ID NO:2) peptide. Note appearance of a 130 kDa band, identified by mass spectroscopy as NRP-1, starting in the fraction 3 of the eluate. Upper panel—a silver stained gel, lower panel—an immunoblot with anti-NRP-1 antibody. FIG. 18B: Binding of RPARPAR (SEQ ID NO:2) phage to M21 melanoma cells transiently transfected with wild-type NRP-1 (NRP-1), triple mutant NS346A-E348A-T349A NRP-1 (Mutant NRP-1), or parental pcDNA3.1plasmid (Vector), and to non-transfected M21 cells. FIG. 18C: (c, d), Confocal immunofluorescence images of NRP-1 and RPARPAR (SEQ ID NO:2) T7 phage in PPC-1 cells incubated with phage at 37° C. for 40 minutes (c) and 3 hours (d). The phage and NRP-1 co-localize extensively, but there appears to be a progressive decrease in the overlap (arrowheads in c and d) and appearance of structures positive for the phage only (arrows, d). (e) Immunostaining and confocal imaging of RPARPAR (SEQ ID NO:2) phage and NRP-1 in M21 cells transiently transfected with NRP-1. […]
# [6] = system: PPC-1 cells; test: T7 phage binding to PPC-1 (PPC1) cells at 4° C., quantified by titration/plaque assay; type: cell-based, human
# Description: as §1, §2, §3, §4
# [7] = system: PPC-1 cells; test: Protease treatment of phage followed by phage binding assay on PPC-1 cells at 4° C.; type: cell-based, human
# Description: 5×10^8 phage particles were incubated with indicated volumes of 2.5% trypsin at 37° C. for 20 min, followed by incubation of the phage with 1×10^6 PPC1 cells at 4° C. for 3 hours. Binding is expressed as fold over non-binding G7 control phage (the internalization of which was not affected by the trypsin treatment).
# 10^9 pfu of RPARPARA (SEQ ID NO:3) phage was treated with indicated amounts of trypsin at 37° C. followed by phage binding assay at 4° C. The data are representative of 4 independent binding experiments.
# FIGS. 20A-20C show urokinase dependent CendR peptide. FIG. 20A: The design of a uPA-activatable CendR peptide (uCendR). […] Statistical analysis was performed with ANOVA (b); n=3; error bars indicate s.d.; triple asterisk, p<0.001. Scale bars: 20 μm.
# as §3
# Protease treatment of phage and qdots. 10^9 phage particles or 50 μl of peptide-coated qdots phage were treated with 50 iu of uPA, 25 μg of crystalline trypsin, 50 iu of thrombin, or 25 μg of collagenase type I (all Sigma, St. Louis, Mo).
# [8] = target: T2, wild-type NRP-1 (Homo sapiens, UniProt O14786); test: Phage binding and internalization in M21 melanoma cells transiently transfected with wild-type NRP-1; type: cell-based
# T2 construct: expressed in transfected cells; host or cells: M21 melanoma cells, transient transfection with lipofectamine; pcDNA3.1(+) construct, gift of Dr. Michael Klagsbrun
# Description: as §5
# T1 sequence (O14786 22-923): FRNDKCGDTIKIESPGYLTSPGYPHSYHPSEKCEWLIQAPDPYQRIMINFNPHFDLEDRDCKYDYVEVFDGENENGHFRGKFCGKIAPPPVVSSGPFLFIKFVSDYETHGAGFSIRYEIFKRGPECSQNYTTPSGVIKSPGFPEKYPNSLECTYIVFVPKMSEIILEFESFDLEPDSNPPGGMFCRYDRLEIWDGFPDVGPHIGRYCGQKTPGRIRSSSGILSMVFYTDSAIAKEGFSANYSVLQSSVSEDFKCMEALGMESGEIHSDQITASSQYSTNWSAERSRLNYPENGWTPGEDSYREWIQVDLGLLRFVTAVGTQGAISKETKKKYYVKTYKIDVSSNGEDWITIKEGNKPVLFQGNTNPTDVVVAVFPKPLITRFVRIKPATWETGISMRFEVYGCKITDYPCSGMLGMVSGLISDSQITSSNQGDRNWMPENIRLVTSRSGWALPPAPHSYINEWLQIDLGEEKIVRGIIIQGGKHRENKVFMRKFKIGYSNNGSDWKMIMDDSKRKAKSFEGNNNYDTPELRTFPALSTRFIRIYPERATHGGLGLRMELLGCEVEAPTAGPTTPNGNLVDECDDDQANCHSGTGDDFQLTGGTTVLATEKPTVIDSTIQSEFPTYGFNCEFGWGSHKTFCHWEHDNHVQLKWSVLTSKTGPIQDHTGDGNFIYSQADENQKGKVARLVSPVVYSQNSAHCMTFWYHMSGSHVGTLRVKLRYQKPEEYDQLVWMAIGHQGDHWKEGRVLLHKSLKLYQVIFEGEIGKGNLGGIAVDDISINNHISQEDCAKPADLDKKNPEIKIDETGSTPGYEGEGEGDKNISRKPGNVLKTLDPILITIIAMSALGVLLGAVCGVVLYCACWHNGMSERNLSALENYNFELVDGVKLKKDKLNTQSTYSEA
# T2 sequence (O14786 22-923): as above
substance,measurement,setting,value
CRGDKGPDC [iRGD peptide],Tumor homing,[1],strong tumor homing; also recorded: homes to pancreatic tumors
same,Internalization into cells relative to other RGD peptides,[2],more strongly internalized into cells than any other RGD peptide
CRGDKGPDC [iRGD phage],Phage internalization into PPC-1 cells (in words),[3]; 37° C.,internalizes extensively into the tumor cells
same,Distribution of phage in pancreatic tumor tissue,[4],extensively taken up by the tumor cells forming the pancreatic tumor ducts
RPARPAR (REAGENT) [RPARPAR peptide],"Effect of unlabelled peptide in binding buffer on binding and internalization of VEGF-C7, enhanced tuftsin and A7R phage",[3],reduced
same,Protein released from immobilized peptide by elution with free RPARPAR peptide,[5],NRP-1
RPARPARA [RPARPARA phage],Phage binding to PPC-1 cells (in words),[6]; 4° C.,abolished the binding
same,"Cell binding, fold over G7-displaying phage","[6]; PPC1 cells, without trypsin treatment",2.8 fold
same,Increase of phage binding to cells by trypsin treatment of the phage,"[7]; phage incubated with trypsin at 37° C., binding at 4° C.",more than 100 fold
same,Effect of trypsin treatment of phage on binding (in words),[7]; trypsin,restored
same,Phage binding and internalization by M21 cells with forced expression of NRP-1,[8],is not internalized
